This is an account of results in patent US4139526A, “Somatostatin analogs” (Merck & Co., Inc., priority 1977, dated 1979).

Experiment [1] relates to plasma insulin. The experiment in a line: Inhibition of insulin: lowering of portal vein plasma insulin in anesthetized rats. The conditions noted are these: somatostatin = 1; i.v. via external jugular vein, portal vein blood after 5 minutes; limits in parentheses. Type of experiment: in vivo, rats (male Sprague-Dawley). The method, then: (§1) The relative potencies of somatostatin analogs on the lowering of plasma insulin and glucagon are determined by the following method:
(§2) Analogs of somatostatin were compared to somatostatin in their ability to lower the levels of portal vein glucagon and insulin in anesthetized rats. Male Sprague-Dawley rats (Charles River CD) weighing 160-200 grams were anesthetized with urethane (150 mg./100 gm.) Saline or peptides were administered via the external jugular vein. After 5 minutes the portal vein was exposed and blood was collected via syringes containing 3 mg. EDTA and placed in chilled tubes containing 100 μl. of Trasylol (obtained from FBA Pharmaceuticals) for subsequent hormone analysis. Plasma levels of glucagon were determined by the method of Faloona, G. R., and Unger, R. H. "Glucagon" in Methods of Hormone Radioimmunoassay, eds. […] Plasma levels of insulin were determined by a modification of the procedure of Herbert, V., Lau, K. S. Gottlieb, C. […]
(§3) Doses were randomized between groups of animals (6 rats/group). Potency values were determined by four, six, or eight point bioassays with somatostatin as the reference standard. Relative potency values were calculated by a relative potency formula for parallel line bioassays as described in Finney, D. J. Statistical Method in Biological Assay (Charles Griffin and Co., Ltd., London) Chap. […]

The subject of experiment [2] is plasma glucagon. Put plainly: Inhibition of glucagon: lowering of portal vein plasma glucagon in anesthetized rats. The conditions noted are these: somatostatin = 1; i.v. via external jugular vein, portal vein blood after 5 minutes; limits in parentheses. The class given is in vivo, rats (male Sprague-Dawley). The method, then:
as §1, §2, §3

Experiment [3] has as its system growth hormone release. The experiment in a line: Inhibition of pentobarbital stimulated growth hormone release in vivo. Also noted: species or system rats. The conditions noted are these: somatostatin = 1; subcutaneous injection, blood after 15 minutes; limits in parentheses. Here is the method:
Somatostatin analogs were compared to somatostatin in their ability to inhibit the release of growth hormone in pentobarbital stimulated rats; a modification of the procedure of Brazeau et al. Endocrinology, 94, 184-187 (1974) was employed. Rats were lightly etherized and sodium pentobarbital (17 mg./Kg. was injected into the exposed Saphenous vein; somatostatin or analog was simultaneously injected subcutaneously. After 15 minutes the animals were bled via the orbital sinus and blood collected for subsequent growth hormone analysis.
(§4) Doses were randomized between groups of animals (6 rats/group). Potency values were determined by four, six, or eight point bioassays with somatostatin as the reference standard. Relative potency values were calculated by a relative potency formula for parallel line bioassays as described in Finney, D. J. Statistical Method in Biological Assay (Charles Griffin and Co., Ltd., London) Chap. 4 pp. 99-138 (1964).

The test system of experiment [4] is Rat pituicytes. Put plainly: Growth hormone inhibition in vitro. The class given is cell-based. The conditions noted are these: somatostatin = 1, 4 hours incubation, limits in parentheses. Here is the method: Rat pituicytes were isolated according to the procedures of Vale and Grant "In vitro Pituitary Hormone Secretion Assay for Hypophysiotropic Substances" in Methods in Enzymology. Vol. XXXVII, eds. O'Malley, B. W. and Hardman, J. G. (Academic Press, Inc., New York) pp. 5-93 (1975).
After 4 days in culture, the cells were washed and incubated for 4 hours in Dulbecco-modified Eagle's medium in the presence or absence of graded doses of each analog or somatostatin. The medium was then collected for subsequent growth hormone determination by a double antibody radioimmunoassay for rat growth hormone.
as §4

Experiment [5] has as its system pentagastrin evoked gastric secretion. Put plainly: Pentagastrin evoked gastric secretion in chronic fistula beagle dogs. Type of experiment: in vivo. The conditions noted are these: 0.8 γ/kg./min. infused 0-60 min. Here is the method: The effect of somatostatin and its analogs on gastric secretion were determined by the following method:
Compounds were tested for their ability to inhibit pentagastrin evoked gastric secretion in the chronic fistula dog. Female beagle dogs with a chronic gastric fistula were given pentagastrin (2.5 μg./kg./hour, i.v. from -60 to 120 min.) and gastric outputs were collected via the fistula cannula. Samples were analyzed at 30 minute intervals for volume (ml.) and titratable acid (mEq/L) (titration […] with 0.01N NaOH); total acid output (mEq) was calculated as the product of output volume and acid concentration. Test compounds were infused at a constant rate from 0 to 60 minutes. Data have been expressed as percent change of total acid output relative to a placebo trial in the same animals.

With `C[C@H](N)C(=O)NCC(=O)N[C@H]1CSSC[C@@H](C(=O)O)NC(=O)[C@H](CO)NC(=O)[C@H]([C@@H](C)O)NC(=O)[C@H](Cc2ccccc2)NC(=O)[C@H]([C@@H](C)O)NC(=O)[C@H](CCCCN)NC(=O)[C@H](Cc2c[nH]c3ccccc23)NC(=O)[C@H](Cc2ccccc2)NC(=O)[C@H](Cc2ccccc2)NC(=O)[C@H](CC(N)=O)NC(=O)[C@H](CCCCN)NC1=O` [(I), Somatostatin], in experiment [1], the “Inhibition of Insulin, potency relative to somatostatin” value is 1. The “Inhibition of Glucagon, potency relative to somatostatin” value in experiment [2] came to 1. In experiment [3], the “Inhibition of Pentobarbital Stimulated Growth Hormone Release In Vivo, potency relative to somatostatin” value stood at 1. Besides, the “Growth Hormone Inhibition In Vitro, potency relative to somatostatin” value in experiment [4] was found to be 1. For the same compound, the “Titratable acid, percent change, during 0-30” value in experiment [5] (sample 0-30 min, during treatment) is listed as -16%. Further, the “Total acid output, percent change, during 0-30” value in experiment [5] (sample 0-30 min, during treatment, relative to placebo trial in the same animals) is on record as -89%. The “Titratable acid, percent change, during 30-60” value in experiment [5] (sample 30-60 min, during treatment) is on record as -17%. In addition, the “Total acid output, percent change, during 30-60” value in experiment [5] (sample 30-60 min, during treatment, relative to placebo trial in the same animals) is -99%. For the same compound, the “Titratable acid, percent change, post-treat 60-90” value in experiment [5] (sample 60-90 min, post-treatment) is listed as -61%. The “Total acid output, percent change, post-treat 60-90” value in experiment [5] (sample 60-90 min, post-treatment, relative to placebo trial in the same animals) is -93%. In addition, the “Titratable acid, percent change, post-treat 90-120” value in experiment [5] (sample 90-120 min, post-treatment) is listed as -41%. The “Total acid output, percent change, post-treat 90-120” value in experiment [5] (sample 90-120 min, post-treatment, relative to placebo trial in the same animals) is on record as -45%.
